Values of other authors as cited in patent US4639511A, “Des-19-leucine-calcitonin analogs” (Armour Pharmaceutical Company, priority 1985, dated 1987).
Positions of bridges follow the written chain, without caps; N, C: chain ends. No end group written: not given here.

Legend:
[1] = literature values, Monikawa et al.
[2] = test system: serum calcium concentration; conditions: standard used in the rat assay

Substance	hypocalcemic potency [1]	potency of the standard salmon calcitonin, independently determined [2]
(1,7-α-L-aminosuberic acid)eel calcitonin	about 3400 IU/mg.	
eel calcitonin (CSNLSTCVLGKLSQELHKLQTYPRTDVGAGTP-NH2; disulfide 1-7; ends not checked; UniProt P01262 1-32, looked up) [synthetic eel calcitonin, synthetic eel calcitonin from Monikawa et al]	around 4300 IU/mg.	
salmon calcitonin [standard salmon calcitonin]		greater than 4,000 IU/mg
